# Reference: patent US6861442B1, “PYK2 and inflammation” (Sugen, Inc., priority 1998, dated 2005)
# Columns and labels:
# Pyk2 = target: T1, Pyk2 (Mus musculus, UniProt Q9QVP9); experiment: Tyrosine phosphorylation of Pyk2 in response to LPS stimulation in P388D1 cells (anti-Pyk2 IP, anti-phosphotyrosine 4G10 western blot); format: cell-based, murine; conditions: P388D1 cells pre-treated 4 hours, then stimulated with LPS for 30 minutes
# T1 construct: abrogates the function of the endogenous wild-type PYK2 protein in these macrophages; endogenous in cells; host or cells: P388D1 murine macrophage cell line
# Method: FIGS. 6a and 6b show the tyrosine phosphorylation of PYK2 in macrophage cell lines in response to LPS (lipopolysaccharide) and tyrosine kinase inhibitors. Cells were either starved overnight in 0.5% serum and stimulated with LPS for variable time intervals (FIG. 6a), or were pre-treated with either herbimycin A or genestein for 4 hours and then stimulated with LPS for 30 minutes (FIG. 6b). After stimulation, cells were washed, lysed, and immunoprecipitated with anti-PYK2 antibody. Immunoprecipitates (IP) were then analyzed by western blotting.
# Cells were lysed in lysis buffer containing 50 mM N-2-hydroxyethylpiperazine-N′-2-ethanesulferic acid (HEPES pH 7.5), 150 mM NaCl, 10% glycerol, 1% Triton X-100, 1.5 mM MgCl2, 1 mM ethyleneglycol-bis (β-aminoethyl ether)-N,N,N′N′-tetraacetic acid (EGTA), 10 μg leupeptin per mL, 10 μg aprotinin per mL, 1 mM phenylmethylsulfonyl fluoride (PMSF), 200 μM sodium orthovanadate and 100 mM sodium fluoride. […] The washed immunoprecipitates were incubated for 5 min with gel sample buffer at 100° C. and analyzed by sodium dodecyl sulfate polyacrylamide gel electrophoresis (SDS-PAGE). […]
# Tyrosine phosphorylation of Pyk2 in response to LPS stimulation was measured in P388D1 cells. […] Immuno-precipitates were then analyzed by western blotting. Tyrosine phosphorylated bands were detected with the anti-phosphotyrosine antibody 4G10. […]
# P388D1 cells = experiment: TNF-α secretion by P388D1 macrophage clones measured by ELISA; format: cell-based, murine; conditions: for Secretion of TNF-α: P388D1 cells stimulated with LPS or PMA; for Secretion of TNF-α caused by the stimulus: 1 μg/mL, overnight (18 hours), P388D1 doxycycline inducible clones
# From the text: FIGS. 8a, 8b, 8c, and 8d compare the secretion of TNF-α by wild-type and kinase mutant P388D1 cells in response to activators of macrophage function or PYK2 activity. FIGS. 8a and 8b show the effect of LPS in the presence and absence of DOX on TNF-α secretion from kinase mutant (dominant negative; FIG. 8a) and wild-type (FIG. 8b) cells. FIGS. 8c and 8d show the effect of PMA in the presence and absence of DOX on TNF-α secretion from kinase mutant (FIG. 8c) and wild-type (FIG. 8d) cells. Induction of P388D1 cells in the presence of doxicycline was carried out for 48 hours followed by stimulation with LPS (1 μg/mL) or PMA (1 μg/mL) for 18 hrs. Secreted TNF-α was measured by ELISA.
# TNF secretion in response to stimulation with either LPS (1 μg/mL) or PMA (1 μg/mL) by the doxycycline inducible clones is shown in FIG. 8. Induction in the presence of doxycycline was carried out for 48 hours followed by stimulation with LPS or PMA overnight (18 hours). […] Secreted TNF-α was measured by ELISA. […] Secretion of TNF-α was inhibited by herbimycin A and genestein, which are non-specific inhibitors of tyrosine phosphorylation.
# wild type macrophages = experiment: Cytoplasmic calcium release in single Fura-2 loaded adherent macrophages; format: cell-based, mice; conditions: wild type macrophages attached to cover slips
# Method: Cells grown in 6-well plates were labeled for 24 h in medium-199 containing myo-[^3H]inositol(20 μCi/ml). The cells were washed once with PBS and pre-incubated for 10 min. in 2 ml of PBS containing 10 mM LiCl (PH 7.4) at 37° C. prior to the addition of chemokines. The cells were extracted with methanol/1M HCl/chloroform 1:1:1 and analyzed by high-performance liquid chromatography (HPLC) as described (Falasca, et al. (1998) EMBO J. 17:414-422). [Ca^2+] i measurements were performed in single macrophages as described (Falasca, et al. 1995).
# Calcium plays an important role in the control of a variety of intracellular events as well as in the control of cell shape, and cell movement (Lawson and Maxfield, 1995). We therefore measured cytoplasmic calcium release in single cells in response to MIP1α stimulation by using quantitative fluorescence microscopy of Fura-2 loaded cells. […] Defect in calcium release may contribute towards the failure of the cells to detach at the rear end leading to impairment in cell migration since proteins that regulate the degradation of focal contact components and disassembly of F-actin require calcium for their action (Witke, et al. (1995) Cell 81:41-51; Kulkarni, et al. (1999) J. Biol Chem. 274:21265-21275).
# T1 sequence (Q9QVP9 whole entry): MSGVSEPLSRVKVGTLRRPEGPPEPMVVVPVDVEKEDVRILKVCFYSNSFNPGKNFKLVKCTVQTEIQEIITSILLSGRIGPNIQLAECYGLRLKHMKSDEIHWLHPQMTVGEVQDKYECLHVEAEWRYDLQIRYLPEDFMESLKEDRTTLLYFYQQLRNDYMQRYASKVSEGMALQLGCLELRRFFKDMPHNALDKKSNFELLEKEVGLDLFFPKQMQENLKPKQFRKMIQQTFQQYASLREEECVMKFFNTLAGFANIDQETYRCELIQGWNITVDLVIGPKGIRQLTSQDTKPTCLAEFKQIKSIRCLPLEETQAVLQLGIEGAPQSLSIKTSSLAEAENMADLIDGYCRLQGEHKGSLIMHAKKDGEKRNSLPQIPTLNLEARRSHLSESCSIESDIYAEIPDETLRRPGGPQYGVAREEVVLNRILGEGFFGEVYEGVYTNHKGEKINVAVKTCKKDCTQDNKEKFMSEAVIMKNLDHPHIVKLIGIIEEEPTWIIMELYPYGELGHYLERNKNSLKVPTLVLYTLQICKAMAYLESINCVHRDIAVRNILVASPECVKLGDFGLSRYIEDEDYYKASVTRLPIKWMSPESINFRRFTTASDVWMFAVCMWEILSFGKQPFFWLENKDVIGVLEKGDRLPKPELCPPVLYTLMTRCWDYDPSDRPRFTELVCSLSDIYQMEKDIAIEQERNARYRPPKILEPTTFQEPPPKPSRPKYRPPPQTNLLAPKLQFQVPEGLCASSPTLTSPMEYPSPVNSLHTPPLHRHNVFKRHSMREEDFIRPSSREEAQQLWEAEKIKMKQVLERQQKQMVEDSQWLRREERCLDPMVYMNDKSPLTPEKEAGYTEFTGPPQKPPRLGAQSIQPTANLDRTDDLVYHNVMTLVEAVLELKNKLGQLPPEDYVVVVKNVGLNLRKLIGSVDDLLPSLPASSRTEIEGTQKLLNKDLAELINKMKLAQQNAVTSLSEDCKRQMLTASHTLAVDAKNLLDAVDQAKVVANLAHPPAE
Molecule,Tyrosine phosphorylation of Pyk2 (Pyk2),Secretion of TNF-α (P388D1 cells),Secretion of TNF-α caused by the stimulus (P388D1 cells),Maximum increase in cytoplasmic [Ca+2] concentration (wild type macrophages)
O=c1c(-c2ccc(O)cc2)coc2cc(O)cc(O)c12 [genestein],diminished,inhibited,,
lipopolysaccharide [LPS],,,caused secretion of TNF-α,
CO[C@H]1[C@@H](OC)C[C@H](C)[C@@H](OC)C2=CC(=O)C=C(NC(=O)/C(C)=C/C=C\[C@H](OC)[C@@H](OC(N)=O)/C(C)=C/[C@@H]1C)C2=O [herbimycin A],diminished,inhibited,,
"CCCCCCCCCCCCCC(=O)O[C@@H]1[C@@H](C)[C@@]2(O)[C@@H](C=C(CO)C[C@]3(O)C(=O)C(C)=C[C@@H]23)[C@@H]2C(C)(C)[C@]12OC(C)=O [PMA, phorbol 12-myristate 13-acetate]",,,caused secretion of TNF-α,
MIP1α: chemokine used to stimulate macrophages,,,,approximately 300 nM
